Values of other authors, collected in US7442682B2, “Transepithelial delivery of peptides with incretin hormone activities” (Nitto Denko Corporation, priority 2004, dated 2008).

Key:
[1] = test system: fasting blood glucose; conditions: type 2 diabetes patients, pump infusion for 6 weeks, mainly within first week
[2] = test system: β-cells; conditions: insulinotropic effect; read-out: half-maximal effective concentration on β-cells
[3] = in vivo

Compound | lowering of fasting blood glucose [1] [mM] | EC50 [2] [pM] | half-life relative to exendin-4 [3]
GLP-1: glucagon-like peptide-1, human incretin hormone | 4 to 5 | 10 | 
CCCCCCCCCCCCCCCC(=O)N[C@@H](CCC(=O)NCCCC[C@H](NC(=O)[C@H](C)NC(=O)[C@H](C)NC(=O)[C@H](CCC(N)=O)NC(=O)CNC(=O)[C@H](CCC(=O)O)NC(=O)[C@H](CC(C)C)NC(=O)[C@H](Cc1ccc(O)cc1)NC(=O)[C@H](CO)NC(=O)[C@H](CO)NC(=O)[C@@H](NC(=O)[C@H](CC(=O)O)NC(=O)[C@H](CO)NC(=O)[C@@H](NC(=O)[C@H](Cc1ccccc1)NC(=O)[C@@H](NC(=O)CNC(=O)[C@H](CCC(=O)O)NC(=O)[C@H](C)NC(=O)[C@@H](N)Cc1cnc[nH]1)[C@@H](C)O)[C@@H](C)O)C(C)C)C(=O)N[C@@H](CCC(=O)O)C(=O)N[C@@H](Cc1ccccc1)C(=O)N[C@H](C(=O)N[C@@H](C)C(=O)N[C@@H](Cc1c[nH]c2ccccc12)C(=O)N[C@@H](CC(C)C)C(=O)N[C@H](C(=O)N[C@@H](CCCNC(=N)N)C(=O)NCC(=O)N[C@@H](CCCNC(=N)N)C(=O)NCC(=O)O)C(C)C)[C@@H](C)CC)C(=O)O [Liraglutide] |  |  | more than 10 fold
